Tests used:
[1] = test system: PCSK9 secretion in HepG2 cells; experiment: Secreted PCSK9 ELISA, HepG2 media; type: cell-based, human; conditions: HepG2, 24 hours; Mdivi-1 50 μM, pitavastatin 1 μM, T0901317 1 μM
Description: Pitavastatin and T0901317 were synthesized and provided by Kowa Company, Ltd. (Tokyo, Japan), and treated at a dose of 1 μM in all experiments. […] Mdivi-1 in DMSO vehicle was added at a concentration of 50 μM in all experiments. Mdivi-1 in DMSO vehicle was added to cell culture media in a 50 mL tube, vortexed hard for several minutes and then incubated at 37° C. prior to adding to cells to ensure the compound was fully solubilized.
HepG2 cells were obtained from ATCC (Manassas, Va.), and cultured in EMEM with L-glutamine (ATCC) medium, 1% pen/strep, with and without 10% FBS (Thermo Fisher Scientific, Waltham, Mass.) in 12-well plates (Corning, Durham, N.C.). HepG2 cells were plated at a density of 60-70% prior to treatment to avoid clumping. […] Cell viability was assessed by Trypan Blue exclusion using live/dead cell counting on a Countess™ II LT automated cell counter (Thermo Fisher Scientific).

[2] = test system: cellular PCSK9 protein; experiment: Western blot, primary human hepatocyte cellular PCSK9 protein; type: cell-based; conditions: primary human hepatocytes, Mdivi-1 50 μM, 24 hours
[3] = test system: SREBP-1c mRNA; experiment: Real time PCR, HepG2 SREBP-1c mRNA; type: cell-based, human; conditions: HepG2, Mdivi-1 50 μM, 24 hours
Text: Human cells and mouse liver was homogenized with TriZolTM (Life Technologies, Grand Island, N.Y.) to isolate RNA. QuantiTectTM Reverse Transcription Kit (Qiagen, Hilden, Germany) was used for reverse transcription on total RNA. cDNA was generated using the Quanta gScriptTM cDNA Synthesis Kit (Bioscience Inc., Gaithersburg, Md.). mRNA levels were quantified on a 7900HT real-time PCR system (Thermo Fisher Scientific) using TaqManTM real-time PCR with the following probes: Hs02758991_g1 (human GAPDH); Mm99999915_g1 (mouse Gapdh); Hs00236329 m1 (human BCL2L1); Hs00247147_m1 (human DRP1); Hs00545399_m1 (human PCSK9); Mm01263610_m1 (mouse Pcsk9); Hs00168352_m1 (human HMGCR); […]); Hs00181192_m1 (human LDLR); Mm00440169_m1 (mouse Ldlr); Hs01088691_m1 (human SREBP1); Mm00550338_m1 (mouse Srebp1); Hs00231674_m1 (human SREBP1a); custom primer (human SREBP1c); Hs01081784_m1 (human SREBP2); Mm01306292_m1 (mouse Srebp2); Hs01005622_m1 (human FASN); […]); Hs00167041_m1 (human HNF1A); Mm00493434_m1 (mouse Hnf1a); Hs00171168 (human APOE); Hs01059118_m1 (human ABCA1); Hs01103582_s1 (human JUN). Mouse SREBP-1c was analyzed by SYBERTM green PCR with the following primers: [NT] All expression levels were normalized to GAPDH using the ΔΔCT method.

[4] = test system: diabetic apolipoprotein E-deficient mice; conditions: cited from earlier work
[5] = test system: naïve wild type rodents; conditions: up to ten weeks after treatment, Mdivi-1 injection; cited from earlier work

COc1cc(-n2c(S)nc3ccccc3c2=O)c(Cl)cc1Cl [Mdivi-1, 3-(2,4-Dichloro-5-methoxyphenyl)-2,3-dihydro-2-thioxo-4(1H)-quinazolinone]
PCSK9 secretion change by ELISA [1]: −76.1% | cellular PCSK9 protein [2]: without altering | SREBP-1c mRNA [3]: strongly reduced | oxidative stress and inflammation [4]: reduces | abnormal phenotypes or cytotoxicity [5]: no abnormal phenotypes or cytotoxicity
